Like-named read-outs stand apart in the source and are kept apart here.
Key:
WT HIV-1 RT (BH10) [1] = biological target: T1, WT HIV-1 RT (BH10) (Human immunodeficiency virus type 1 group M subtype B, UniProt P03366); test: Inhibition constants under steady-state nucleotide incorporation conditions; assay type: biochemical
T1 construct: His6 (C); made in house; host or cells: E. coli XL1 Blue
Method: (§1) RTs were expressed in E. coli XL1 Blue and purified as p66/p51 heterodimers by ionic exchange, followed by immobilized metal affinity chromatography on Ni^2+-nitriloacetic acid-agarose. The p66 subunit was obtained with a His6 tag at its C-terminal end to facilitate its purification by metal affinity chromatography. Purity of the enzymes was assessed by SDS-polyacrylamide gel electrophoresis and RT concentrations were determined by active site titration as described.
(§2) Nucleotide incorporation reactions under steady-state conditions were carried out as previously described. However, in the preincubation buffer, active RT and template-primers D38/25PGA or D38T/25PGA were present at concentrations of 7–20 nM and 60 nM, respectively. Elongation rates were determined with dTTP concentrations ranging from 0.05 to 20 μM or with dATP concentrations ranging from 12 nM to 10 μM, using reaction volumes of 20 μl. Catalytic constants kcat and Km were determined after fitting the elongation data to the Michaelis–Menten equation as described. Inhibition constants (Ki) for AZTTP and tenofovir-DP were determined under the conditions used for obtaining the catalytic constants of dTTP and dATP incorporation, respectively. In order to distinguish between dTTP and AZTTP, elongation reactions were carried out under conditions that allowed the incorporation of two nucleotides (i.e. T at position +1 and A at position +2). For this purpose dATP was supplied at 1 μM in all assays. The competition between tenofovir-DP and dATP was analyzed with template-primer D38T/25PGA. Assays were carried out with variable concentrations of dATP (as indicated above) and 2 μM dTTP to facilitate further extension of the primer when the inhibitor was not incorporated at position +1 of the DNA primer. Data were analyzed by using Lineweaver-Burk plots. Nucleotide incorporation reactions under pre-steady-state conditions were carried out with template-primer D38/25PGA, as described.

[2] = biological target: T2, HIV-1 RT M41L/L210W/T215Y (Human immunodeficiency virus type 1 group M subtype B, UniProt P03366, L809W/M640L/T814Y); test: as above; assay type: biochemical
T2 construct: His6 (C); made in house; host or cells: E. coli XL1 Blue
Method: as §1, §2

[3] = biological target: T3, HIV-1 RT M41L/L210W/T215Y/R284K (Human immunodeficiency virus type 1 group M subtype B, UniProt P03366, L809W/M640L/R883K/T814Y); test: as above; assay type: biochemical
T3 construct: His6 (C); made in house; host or cells: E. coli XL1 Blue
Method: as §1, §2

[4] = biological target: T2, HIV-1 RT M41L/L210W/T215Y; assay type: biochemical; conditions: M41L/L210W/T215Y RT 210 nM, 3.2 mM ATP, terminated 26-mer primer on 38-nt DNA template 30 nM
Method: (§3) The primer 25PGA was blocked at its 3´ end with d4TTP using terminal deoxynucleotidyltransferase (Roche), and excess nucleotides were eliminated by repeated passage through a mini Quick Spin column (Roche). The blocked primer was then labeled with [γ-^32P]ATP and T4 polynucleotide kinase and annealed to the DNA template D38, in order to obtain the template-primer D38/25PGA^d4T, used in the excision reactions. […] For this purpose, we preincubated the template-primer D38/^32P]25PGA (4.6 μM) with HIV-1BH10 RT (4 μM) in 65 μl of 50 mM Hepes pH 7.0 buffer, containing 15 mM NaCl, 15 mM magnesium acetate, 130 mM potassium acetate, 1 mM dithiothreitol, and 5% polyethylene glycol for 10 minutes at 37°C. Then, 35 μl of 6 mM AZTTP (diluted in the preincubation buffer) were added and incubated for another 30 minutes at 37°C to ensure that the primer was blocked completely. The RT was inactivated by heating the mixture for 10 minutes at 90°C. After slowly cooling the sample at room temperature, it was passaged several times through a mini Quick Spin column (Roche) to eliminate the free AZTTP. […] The excision of d4T monophosphate (d4TMP) from D38/25PGA^d4T was determined under single turnover conditions, as previously described.

[5] = biological target: T3, HIV-1 RT M41L/L210W/T215Y/R284K; assay type: biochemical; conditions: M41L/L210W/T215Y/R284K RT 210 nM, 3.2 mM ATP, terminated 26-mer primer on 38-nt DNA template 30 nM
Method: as §3

WT HIV-1 RT = biological target: T4, WT HIV-1 RT (Human immunodeficiency virus type 1 group M subtype B, UniProt P03366); assay type: biochemical
T4 construct: His6 (C); made in house; host or cells: E. coli XL1 Blue
Method: as §3

HIV-1 RT R284K = biological target: T5, HIV-1 RT R284K (Human immunodeficiency virus type 1 group M subtype B, UniProt P03366, R883K); test: Kinetics of ATP-dependent excision from DNA/DNA template-primers (single turnover); assay type: biochemical; conditions: R284K RT 210 nM, 3.2 mM ATP, terminated 26-mer primer on 38-nt DNA template 30 nM
T5 construct: His6 (C); made in house; host or cells: E. coli XL1 Blue
Method: as §3

[6] = test system: HIV-1 construct with RT M41L/L210W/T215Y; test: Phenotypic drug susceptibility of recombinant HIV-1 in MT-4 cells (tetrazolium-based colorimetric method); assay type: cell-based
Method: (§4) Site-directed mutagenesis was carried out with the Quik-Change Site-Directed Mutagenesis kit (Stratagene) by following the manufacturer’s instructions, and using plasmids p66RTB [64] or p66RTB(LY) as templates. The plasmid p66RTB contains the nucleotide sequence encoding for the 66-kDa subunit of HIV-1BH10 RT, and p66RTB(LY) encodes a p66 derivative with thymidine analogue resistance mutations M41L and T215Y. […] All introduced mutations were confirmed by DNA sequencing. Recombinant HIV-1 was obtained as previously described. […] MT-4 cells were used to propagate the recombinant virus. The nucleotide sequence of the RT-coding region was fully determined in order to check for reversions or undesired mutations. MT-4 cells and the deleted HXB2-D clone were obtained from the AIDS Reagent Program (Medical Research Council).
(§5) Viable cells at different drug concentrations were quantified with a tetrazolium-based colorimetric method. Replication kinetics of wild-type and mutant viruses were assayed by infecting peripheral blood mononuclear cells (PBMCs) (mixed from two healthy donors), previously stimulated with phytohemagglutinin and interleukin 2 [26]. In these assays, viral replication rates were obtained from the amounts of HIV-1 p24^Gag antigen produced during the exponential phase of viral growth, as described previously. Growth competition assays in MT-4 cells were carried out as previously described, in the absence and in the presence of tenofovir disoproxil fumarate at concentrations ranging from 5 to 80 nM. A multiplicity of infection of 0.001 was used and competing viruses were mixed at a 50:50 ratio. RT inhibitors were obtained from the NIH AIDS Research and Reference Reagent Program.

[7] = test system: HIV-1 construct with RT M41L/L210W/T215Y/R284K; test: as above; assay type: cell-based
Method: as §4, §5

[8] = test system: HIV-1 construct with RT R284K; test: as above; assay type: cell-based
Method: as §4, §5

[9] = test system: wild-type HXB2 virus carrying the RT sequence of BH10; test: as above; assay type: cell-based; conditions: average ± SD of at least three tests
Method: as §4, §5

WT HIV-1 RT (BH10) [10] = biological target: T1, WT HIV-1 RT (BH10); test: Steady-state kinetics of nucleotide incorporation; assay type: biochemical; conditions: D38/25PGA for dTTP, D38T/25PGA for dATP
Method: as §1, §2

[11] = biological target: T2, HIV-1 RT M41L/L210W/T215Y; test: Steady-state kinetics of nucleotide incorporation; assay type: biochemical; conditions: D38/25PGA for dTTP, D38T/25PGA for dATP
Method: as §1, §2

[12] = biological target: T3, HIV-1 RT M41L/L210W/T215Y/R284K; test: Steady-state kinetics of nucleotide incorporation; assay type: biochemical; conditions: D38/25PGA for dTTP, D38T/25PGA for dATP
Method: as §1, §2

[13] = biological target: T2, HIV-1 RT M41L/L210W/T215Y; test: Single-nucleotide incorporation under pre-steady-state conditions; assay type: biochemical; conditions: D38/25PGA, 80 μM dTTP
Method: as §2, with “Nucleotide incorporation reactions under pre-steady-state conditions were carried out with template-primer D38/25PGA, as described.” left out

[14] = biological target: T3, HIV-1 RT M41L/L210W/T215Y/R284K; test: as above; assay type: biochemical; conditions: D38/25PGA, 80 μM dTTP
Method: as §2, with “Nucleotide incorporation reactions under pre-steady-state conditions were carried out with template-primer D38/25PGA, as described.” left out

[15] = Human immunodeficiency virus 1, MT4, average ± SD of at least three tests
[16] = Human immunodeficiency virus 1, HXB2, MT4, WT virus

## CC(Cn1cnc2c(N)ncnc21)OCP(=O)(O)OP(=O)(O)OP(=O)(O)O (stereo in doubt) [Tenofovir-DP, tenofovir diphosphate]
WT HIV-1 RT (BH10) [1]; competition with dATP, template-primer D38T/25PGA, read-out: Ki(Tenofovir-DP)
  Ki: 3.59 ± 0.26 µM
[2]; M41L/L210W/T215Y RT, competition with dATP, template-primer D38T/25PGA, read-out: Ki(Tenofovir-DP)
  Ki: 2.63 ± 0.64 µM
[3]; M41L/L210W/T215Y/R284K RT, competition with dATP, template-primer D38T/25PGA, read-out: Ki(Tenofovir-DP)
  Ki: 2.54 ± 0.55 µM

## Cc1cn([C@H]2C[C@H](N=[N+]=[N-])[C@@H](COP(=O)(O)O)O2)c(=O)[nH]c1=O [AZTMP]
[4]
  kobs of ATP-dependent excision reaction: 0.0469 ± 0.00169 min⁻¹
[5]
  kobs of ATP-dependent excision reaction: 0.0364 ± 0.00308 min⁻¹
WT HIV-1 RT; WT RT 210 nM, 3.2 mM ATP, terminated 26-mer primer on 38-nt DNA template 30 nM
  kobs of ATP-dependent excision reaction: 0.00282 ± 0.000148 min⁻¹
HIV-1 RT R284K
  kobs of ATP-dependent excision reaction: 0.00242 ± 0.000122 min⁻¹

## Cc1cn([C@H]2C[C@H](N=[N+]=[N-])[C@@H](CO[P@](=O)(O)O[P@](=O)(O)OP(=O)(O)O)O2)c(=O)[nH]c1=O [AZTTP]
WT HIV-1 RT (BH10) [1]; competition with dTTP, template-primer D38/25PGA, read-out: Ki(AZTTP)
  Ki: 2.1 ± 0.38 µM
[2]
  Ki: 2.18 ± 0.17 µM
[3]
  Ki: 2.32 ± 0.74 µM

## Nc1nc(=O)n([C@@H]2CS[C@H](CO)O2)cc1F [Emtricitabine]
[6]
  fold increase in IC50 relative to the wild-type HXB2 virus control: 1.6
[6]; [15]
  IC50: 0.227 ± 0.113 µM
[7]
  fold increase in IC50 relative to the wild-type HXB2 virus control: 2.0
[7]; [15]
  IC50: 0.295 ± 0.0937 µM
[8]
  fold increase in IC50 relative to the wild-type HXB2 virus control: 0.7
[8]; [15]
  IC50: 0.104 ± 0.0815 µM
[9]; [16]
  IC50: 0.144 ± 0.0699 µM

## CC(C)OC(=O)OCOP(=O)(CO[C@H](C)Cn1cnc2c(N)ncnc21)OCOC(=O)OC(C)C.O=C(O)/C=C/C(=O)O [Tenofovir, tenofovir disoproxil fumarate]
[6]
  fold increase in IC50 relative to the wild-type HXB2 virus control: 1.6
[6]; M41L/L210W/T215Y virus, average ± SD of at least three tests
  IC50: 0.011 ± 0.0046 µM
[7]
  fold increase in IC50 relative to the wild-type HXB2 virus control: 2.7
[7]; M41L/L210W/T215Y/R284K virus, average ± SD of at least three tests
  IC50: 0.0181 ± 0.0044 µM
[8]
  fold increase in IC50 relative to the wild-type HXB2 virus control: 1.8
[8]; R284K virus, average ± SD of at least three tests
  IC50: 0.0121 ± 0.0053 µM
[9]; WT virus
  IC50: 0.0067 ± 0.0022 µM

## Cc1cn([C@H]2C=C[C@@H](CO)O2)c(=O)[nH]c1=O [d4T, 2´,3´-didehydro-2´,3´-dideoxythymidine]
[6]
  fold increase in IC50 relative to the wild-type HXB2 virus control: 0.8
[6]; [15]
  IC50: 0.217 ± 0.0755 µM
[7]
  fold increase in IC50 relative to the wild-type HXB2 virus control: 1.0
[7]; [15]
  IC50: 0.287 ± 0.0845 µM
[8]
  fold increase in IC50 relative to the wild-type HXB2 virus control: 0.5
[8]; [15]
  IC50: 0.13 ± 0.0248 µM
[9]; [16]
  IC50: 0.276 ± 0.0905 µM

## Cc1cn([C@H]2C=C[C@@H](COP(=O)(O)O)O2)c(=O)[nH]c1=O [d4TMP, d4T monophosphate]
[4]
  kobs of ATP-dependent excision reaction: 0.0372 ± 0.00158 min⁻¹
[5]
  kobs of ATP-dependent excision reaction: 0.037 ± 0.00229 min⁻¹
WT HIV-1 RT
  kobs of ATP-dependent excision reaction: 0.00337 ± 0.000193 min⁻¹
HIV-1 RT R284K
  kobs of ATP-dependent excision reaction: 0.00262 ± 0.000142 min⁻¹

## Nc1ncnc2c1ncn2[C@H]1C[C@H](O)[C@@H](COP(=O)(O)OP(=O)(O)OP(=O)(O)O)O1 [dATP]
WT HIV-1 RT (BH10) [10]
  Km: 0.0258 ± 0.0067 µM
  kcat: 0.0645 ± 0.0165 s⁻¹
[11]
  Km: 0.0321 ± 0.0096 µM
  kcat: 0.095 ± 0.0145 s⁻¹
[12]
  Km: 0.0159 ± 0.0025 µM
  kcat: 0.1682 ± 0.0245 s⁻¹

## Cc1cn([C@H]2C[C@H](O)[C@@H](COP(=O)(O)OP(=O)(O)OP(=O)(O)O)O2)c(=O)[nH]c1=O [dTTP]
[13]
  nucleotide incorporation rate (kobs): 21.5 ± 4.4 s⁻¹
[14]
  nucleotide incorporation rate (kobs): 38.8 ± 9.4 s⁻¹
WT HIV-1 RT (BH10) [10]
  Km: 0.108 ± 0.0129 µM
  kcat: 0.0523 ± 0.00917 s⁻¹
[11]
  Km: 0.117 ± 0.0219 µM
  kcat: 0.0588 ± 0.0015 s⁻¹
[12]
  Km: 0.184 ± 0.0061 µM
  kcat: 0.0943 ± 0.00383 s⁻¹

— paper PMC3468358, “Clinical, virological and biochemical evidence supporting the association of HIV-1 reverse transcriptase polymorphism R284K and thymidine analogue resistance mutations M41L, L210W and T215Y in patients failing tenofovir/emtricitabine therapy” (Retrovirology, 2012)
